For nine compounds, G12D_exchange, Caco-2 and G12V_exchange results are on record in patent US20240358702A1, “CYCLIC UREA KRAS INHIBITORS” (INCYTE CORPORATION, priority 2023, published 2024).

One data set concerns the target KRAS G12D (Homo sapiens, UniProt P01116, G12D). The data set can be described thus: GDP-GTP exchange assay (bodipy-GDP/GppNHp, SOS1), KRAS G12D. The data set is classed as biochemical. To be noted: KRAS_G12D exchange assay IC50; 4 h pre-incubation; value for the most potent isomer quoted.
In a further data set the test system is Caco-2 cells. Put plainly: Caco2 assay (permeability, A-B). The data set is classed as in vitro ADME. To be noted: Papp absorptive direction (A-B), test compound 50 μM, 120 minutes. The method, then: Caco-2 cells are grown at 37° C. in an atmosphere of 5% CO2 in DMEM growth medium supplemented with 10% (v/v) fetal bovine serum, 1% (v/v) nonessential amino acids, penicillin (100 U/mL), and streptomycin (100 μg/mL). Confluent cell monolayers are subcultured every 7 days or 4 days for Caco-2 by treatment with 0.05% trypsin containing […]. Caco-2 cells are seeded in 96-well Transwell plates. The seeding density for Caco-2 cells is 14,000 cells/well. DMEM growth medium is replaced every other day after seeding. Cell monolayers are used for transport assays between 22 and 25 days for Caco-2 cells.
Cell culture medium is removed and replaced with HBSS. To measure the TEER, the HBSS is added into the donor compartment (apical side) and receiver compartment (basolateral side). The TEER is measured by using a REMS Autosampler to ensure the integrity of the cell monolayers. Caco-2 cell monolayers with TEER values≥300 Ω·cm^2 are used for transport experiments. To determine the Papp in the absorptive direction (A-B), solution of test compound (50 μM) in HBSS is added to the donor compartment (apical side), while HBSS solution with 4% BSA is added to the receiver compartment (basolateral side). The apical volume was 0.075 mL, and the basolateral volume is 0.25 mL. The incubation period is 120 minutes at 37° C. in an atmosphere of 5% CO2. At the end of the incubation period, samples from the donor and receiver sides are removed and an equal volume of acetonitrile is added for protein precipitation. The supernatants are collected after centrifugation (3000 rpm, Allegra X-14R Centrifuge from Beckman Coulter, Indianapolis, IN) for LCMS analysis. The permeability value is determined according to the equation: […]
where the flux rate (F, mass/time) is calculated from the slope of cumulative amounts of compound of interest on the receiver side, SA is the surface area of the cell membrane, VD is the donor volume, and MD is the initial amount of the solution in the donor chamber.
The symbol “+” indicates a Caco-2 value of […], “++” indicates a Caco-2 value of >0.5 but ≤1; and “+++” indicates a Caco-2 value of >1. “NA” indicates IC50 not available.
In general terms: Passage across Caco-2 layers is used to estimate intestinal permeability.

The target of a further data set is KRAS G12V (Homo sapiens, UniProt P01116, G12V). Put plainly: GDP-GTP exchange assay (bodipy-GDP/GppNHp, SOS1), KRAS G12V. Format: biochemical. To be noted: KRAS_G12V exchange assay IC50; value for the most potent isomer quoted.
Chain of KRAS G12V (P01116 1-188 isoform P01116-2 G12V): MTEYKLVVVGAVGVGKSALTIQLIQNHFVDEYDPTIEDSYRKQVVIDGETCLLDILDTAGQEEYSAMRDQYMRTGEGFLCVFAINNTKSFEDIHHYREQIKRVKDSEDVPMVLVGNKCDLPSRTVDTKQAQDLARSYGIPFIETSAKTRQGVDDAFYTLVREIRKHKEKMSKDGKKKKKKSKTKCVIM

Chain of KRAS G12D (P01116 1-188 isoform P01116-2 G12D): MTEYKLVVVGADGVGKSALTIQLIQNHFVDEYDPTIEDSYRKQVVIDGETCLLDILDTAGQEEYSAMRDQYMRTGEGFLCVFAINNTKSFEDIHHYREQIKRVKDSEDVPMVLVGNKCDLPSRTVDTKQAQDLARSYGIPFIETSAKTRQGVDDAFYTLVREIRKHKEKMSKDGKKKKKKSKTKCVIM

`Cc1nc2c(F)c(-c3cccc(Cl)c3Cl)c(CCC#N)cc2c2c1cc([C@@H](C)N1CCCN(c3ccncc3F)C1=O)n2[C@H]1[C@H]2CN[C@@H]1C2` (single isomer, unassigned) [Example 5]: on KRAS G12D, the G12D_exchange entry is “†”. In addition, the Caco-2 entry in the data set with Caco-2 cells is “+++ (“+++” indicates a Caco-2 value of >1)”. The G12V_exchange result at KRAS G12V is listed as “†”.
Regarding `Cc1nc2c(F)c(-c3cccc(Cl)c3Cl)c(CCC#N)cc2c2c1cc([C@@H](C)N1CCCN(c3ccccc3)C1=O)n2[C@H]1[C@H]2CN[C@@H]1C2` (single isomer, unassigned) [Example 2], the G12D_exchange entry on KRAS G12D is given as “†”. For the same compound, in the data set on Caco-2 cells, the Caco-2 entry was “+++ (“+++” indicates a Caco-2 value of >1)”. Moreover, at KRAS G12V, the G12V_exchange entry is reported as “†”.
`Cc1nc2c(F)c(-c3cccc(Cl)c3Cl)c(CCC#N)cc2c2c1cc([C@@H](C)N1CCCN(c3ccc(F)cc3)C1=O)n2[C@H]1[C@H]2CN[C@@H]1C2` (single isomer, unassigned) [Example 3]: the G12D_exchange result on KRAS G12D is reported as “†”. The Caco-2 entry in the data set on Caco-2 cells was “+++ (“+++” indicates a Caco-2 value of >1)”. Besides, the G12V_exchange result on KRAS G12V is given as “†”.
For `Cc1nc2c(F)c(-c3cccc(Cl)c3Cl)c(CCC#N)cc2c2c1cc([C@@H](C)N1CCCN(c3ccncc3)C1=O)n2[C@H]1[C@H]2CN[C@@H]1C2` (single isomer, unassigned) [Example 1], the G12D_exchange entry at KRAS G12D is on record as “†”. Moreover, the Caco-2 result in the data set with Caco-2 cells was “+++ (“+++” indicates a Caco-2 value of >1)”. In addition, the G12V_exchange result at KRAS G12V is on record as “†”.
Turning to `Cc1nc2c(F)c(-c3cccc(Cl)c3Cl)c(CCC#N)cc2c2c1cc([C@@H](C)N1CCCN(c3ccnc(F)c3)C1=O)n2[C@H]1[C@H]2CN[C@@H]1C2` (single isomer, unassigned) [Example 6], the G12D_exchange result on KRAS G12D is reported as “†”. Moreover, the Caco-2 entry in the data set with Caco-2 cells is reported as “+++ (“+++” indicates a Caco-2 value of >1)”. Besides, the G12V_exchange result on KRAS G12V is listed as “†”.
On to `Cc1nc2c(F)c(-c3cccc(Cl)c3Cl)c(CCC#N)cc2c2c1cc([C@@H](C)N1CCCN(c3ccccn3)C1=O)n2[C@H]1[C@H]2CN[C@@H]1C2` (single isomer, unassigned) [Example 4], for which, at KRAS G12D, the G12D_exchange entry was “†”. Moreover, the Caco-2 result with Caco-2 cells is reported as “+ (“+” indicates a Caco-2 value of 50.5)”. Further, the G12V_exchange result on KRAS G12V was “†”.
`Cc1c(Cl)cc(O)cc1-c1c(CCC#N)cc2c(nc(C)c3cc([C@@H](C)N4CCCN(c5ccncc5)C4=O)n([C@H]4[C@H]5CN[C@@H]4C5)c32)c1F` [Example 15, 3-(1-((1R,4R,5S)-2-azabicyclo[2.1.1]hexan-5-yl)-7-(3-chloro-5-hydroxy-2-methylphenyl)-6-fluoro-4-methyl-2-((R)-1-(2-oxo-3-(pyridin-4-yl)tetrahydropyrimidin-1(2H)-yl)ethyl)-1H-pyrrolo[3,2-c]quinolin-8-yl)propanenitrile]: the G12D_exchange result on KRAS G12D is reported as “†”. For the same compound, the Caco-2 entry in the data set with Caco-2 cells is reported as “+ (“+” indicates a Caco-2 value of 50.5)”. Besides, the G12V_exchange result on KRAS G12V is given as “†”.
On to `CC(O)c1nc2c(F)c(-c3cccc(Cl)c3Cl)c(CCC#N)cc2c2c1cc([C@@H](C)N1CCCN(c3ccncc3)C1=O)n2[C@H]1[C@H]2CN[C@@H]1C2` (single isomer, unassigned) [Example 14], for which, at KRAS G12D, the G12D_exchange entry is “†”. In the data set with Caco-2 cells, the Caco-2 entry was “+ (“+” indicates a Caco-2 value of 50.5)”. The G12V_exchange result at KRAS G12V is “†”.
With `Cc1nc2c(F)c(-c3cccc(Cl)c3Cl)c(CCC#N)cc2c2c1cc([C@@H](C)N1CCCN(c3ccc(F)cn3)C1=O)n2[C@H]1[C@H]2CN[C@@H]1C2` (single isomer, unassigned) [Example 7], the G12D_exchange result on KRAS G12D is listed as “†”. Also, in the data set on Caco-2 cells, the Caco-2 result is recorded as “+++ (“+++” indicates a Caco-2 value of >1)”. The G12V_exchange result at KRAS G12V was “†”.
